Test results from patent US7297700B2, “Bicycloheteroaryl compounds as P2X7 modulators and uses thereof” (Renovis, Inc., priority 2005, dated 2007).

System: IL-1β release from THP-1 cells
Experiment: IL-1β Release Assay (Alternate Method), THP-1 cells
Format: cell-based, human
Conditions: Homo sapiens, THP-1, read-out: IL-1β % inhibition
How it was run: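 THP-1 cells differentiated 16 h with 100 ng/mL LPS plus 100 ng/mL IFN-γ, reprimed 2 h with 100 ng/mL LPS, pretreated 30 min with compound, then challenged 45 min with 250 uM BzATP (final). Supernatant IL-1β quantified by ELISA; percent inhibition from background-adjusted levels versus untreated cells.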

Row | Compound | inhibition at 0.3 µM [%]
1 | O=C(CC12CC3CC(CC(C3)C1)C2)Nc1ncnc2c1CCN(CCO)C2 [Compound 18, 2-Adamantan-1-yl-N-[7-(2-hydroxy-ethyl)-5,6,7,8-tetrahydro-pyrido[3,4-d]pyrimidin-4-yl]-acetamide] | 0 to 25

Same assay, conditions: Homo sapiens; at 0.3 μM; THP-1 cells, BzATP-stimulated; read-out: IL-1β % inhibition

Row | Compound | inhibition at 0.3 µM [%]
2 | O=C(CC12CC3CC(CC(C3)C1)C2)Nc1cccc2c1C=CN(Cc1ccc(F)cc1)C2 [Compound 636] | 0 to 25

Same assay, conditions: Homo sapiens; at 0.3 μM; THP-1 cells; read-out: IL-1β % inhibition

Row | Compound | inhibition at 0.3 µM [%]
3 | O=C(NCC12CC3CC(CC(C3)C1)C2)c1ncnc2c1CCN(Cc1ccccc1)C2 [Compound 17, 7-Benzyl-N-adamantylmethyl-5,6,7,8-tetrahydropyrido[3,4-d]pyrimidine-4-carboxamide] | > 75

Same assay, conditions: at 0.3 μM; THP-1 cells

Row | Compound | IL-1β % inhibition
4 | O=C(CC1CCCCC1)Nc1ncnc2c1CCN(CCO)C2 [Compound 22] | + (compound exhibited 0-25% inhibition at 0.3 μM)
5 | CC12CC3CC(C)(C1)CC(CC(=O)Nc1ncnc4c1CCN(S(=O)(=O)Cc1ccccc1)C4)(C3)C2 [Compound 377] | ++++ (compound exhibited 75% or greater inhibition at 0.3 μM)
6 | CSc1ccc(CN2CCc3c(ncnc3NC(=O)CC34CC5CC(CC(C5)C3)C4)C2)cc1 [Compound 116] | + (compound exhibited 0-25% inhibition at 0.3 μM)
7 | O=C(CC12CC3CC(CC(C3)C1)C2)Nc1ncnc2c1CCN(S(=O)(=O)Cc1ccc(Cl)c(Cl)c1)C2 [Compound 185] | ++ (compound exhibited 25-50% inhibition at 0.3 μM)
8 | COc1ccc(S(=O)(=O)N2CCc3c(ncnc3NC(=O)CC34CC5CC(CC(C5)C3)C4)C2)cc1OC [Compound 151] | + (compound exhibited 0-25% inhibition at 0.3 μM)
9 | O=C(NCC12CC3CC(CC(C3)C1)C2)c1ncnc2c1CCN(Cc1ccccc1Cl)C2 [Compound 337] | ++ (compound exhibited 25-50% inhibition at 0.3 μM)
10 | Cc1cc(C(=O)N2CCc3c(ncnc3NC(=O)CC34CC5CC(CC(C5)C3)C4)C2)c(C)o1 [Compound 293] | +++ (compound exhibited 50-75% inhibition at 0.3 μM)
11 | COc1ccc(CN2CCc3c(ncnc3NC(=O)CC34CC5CC(CC(C5)C3)C4)C2)c(OC)c1 [Compound 30] | ++++ (compound exhibited 75% or greater inhibition at 0.3 μM)
12 | O=C(CC12CC3CC(CC(C3)C1)C2)Nc1ncnc2c1CCN(Cc1ccc(C(F)(F)F)cc1F)C2 [Compound 110] | + (compound exhibited 0-25% inhibition at 0.3 μM)
13 | O=C(CC12CC3CC(CC(C3)C1)C2)Nc1ncnc2c1CCN(Cc1ccccn1)C2 [Compound 61] | + (compound exhibited 0-25% inhibition at 0.3 μM)
14 | O=C(c1ccc(F)c(F)c1)N1CCc2c(ncnc2NC(=O)C23CC4CC(CC(C4)C2)C3)C1 [Compound 405] | ++ (compound exhibited 25-50% inhibition at 0.3 μM)
15 | O=C(CC12CC3CC(CC(C3)C1)C2)Nc1ncnc2c1CCN(C(=O)c1cccc(Cl)c1)C2 [Compound 253] | +++ (compound exhibited 50-75% inhibition at 0.3 μM)
16 | Cc1ccccc1S(=O)(=O)N1CCc2c(ncnc2NC(=O)CC23CC4CC(CC(C4)C2)C3)C1 [Compound 199] | ++++ (compound exhibited 75% or greater inhibition at 0.3 μM)
17 | O=C(CC12CC3CC(CC(C3)C1)C2)Nc1ncnc2c1CCN(C(=O)Cc1ccc(Cl)cc1)C2 [Compound 265] | ++ (compound exhibited 25-50% inhibition at 0.3 μM)
18 | O=C(CC12CC3CC(CC(C3)C1)C2)Nc1ncnc2c1CCN(C(=O)C(c1ccccc1)c1ccccc1)C2 [Compound 236] | +++ (compound exhibited 50-75% inhibition at 0.3 μM)
19 | O=C(CC1CCCCC1)Nc1ncnc2c1CCNC2 [Compound 11] | + (compound exhibited 0-25% inhibition at 0.3 μM)

Row | Compound | IL-1β % inhibition
20 | CC(C)(C(=O)Nc1ncnc2c1CCN(C(=O)CC1CCCC1)C2)C12CC3CC(CC(C3)C1)C2 [Compound 365] | + (compound exhibited 0-25% inhibition at 0.3 μM)
21 | COc1ccc(S(=O)(=O)N2CCc3c(ncnc3NC(=O)CC34CC5CC(CC(C5)C3)C4)C2)cc1 [Compound 149] | +++ (compound exhibited 50-75% inhibition at 0.3 μM)
22 | O=C(NCC1CCCCC1)c1ncnc2c1CCN(Cc1ccccn1)C2 [Compound 52] | + (compound exhibited 0-25% inhibition at 0.3 μM)
23 | O=C(CC12CC3CC(CC(C3)C1)C2)Nc1ncnc2c1CCN(S(=O)(=O)c1ccc(F)c(Cl)c1)C2 [Compound 193] | + (compound exhibited 0-25% inhibition at 0.3 μM)
24 | O=C(CC12CC3CC(CC(C3)C1)C2)Nc1ncnc2c1CCN(C(=O)c1ccc(F)cc1F)C2 [Compound 277] | +++ (compound exhibited 50-75% inhibition at 0.3 μM)
25 | O=C(CC12CC3CC(CC(C3)C1)C2)Nc1ncnc2c1CCN(S(=O)(=O)c1ccc(Oc3cccnc3)cc1)C2 [Compound 174] | ++++ (compound exhibited 75% or greater inhibition at 0.3 μM)
26 | CC(C)(C(=O)Nc1ncnc2c1CCN(C(=O)C1CCCCC1)C2)C12CC3CC(CC(C3)C1)C2 [Compound 366] | + (compound exhibited 0-25% inhibition at 0.3 μM)
27 | CC12CC3CC(C)(C1)CC(CC(=O)Nc1ncnc4c1CCN(Cc1ccc5c(c1)OCCO5)C4)(C3)C2 [Compound 373] | ++++ (compound exhibited 75% or greater inhibition at 0.3 μM)
28 | CC12CC3CC(C)(C1)CC(CC(=O)Nc1ncnc4c1CCN(S(=O)(=O)Cc1ccc(Cl)c(Cl)c1)C4)(C3)C2 [Compound 378] | +++ (compound exhibited 50-75% inhibition at 0.3 μM)
29 | CC(C)(C(=O)Nc1ncnc2c1CCN(Cc1ccccc1Cl)C2)C12CC3CC(CC(C3)C1)C2 [Compound 348] | + (compound exhibited 0-25% inhibition at 0.3 μM)
30 | O=C(CC12CC3CC(CC(C3)C1)C2)Nc1ncnc2c1CCN(S(=O)(=O)Cc1ccccc1)C2 [Compound 153] | ++++ (compound exhibited 75% or greater inhibition at 0.3 μM)
31 | N#Cc1cccc(C(=O)N2CCc3c(ncnc3NC(=O)CC34CC5CC(CC(C5)C3)C4)C2)c1 [Compound 242] | +++ (compound exhibited 50-75% inhibition at 0.3 μM)
32 | CC12CC3CC(C)(C1)CC(CC(=O)Nc1ncnc4c1CCN(C(=O)c1cccc(C(F)(F)F)c1)C4)(C3)C2 [Compound 383] | + (compound exhibited 0-25% inhibition at 0.3 μM)
33 | O=C(CC12CC3CC(CC(C3)C1)C2)Nc1ncnc2c1CCN(Cc1ccc(OC(F)(F)F)cc1)C2 [Compound 74] | + (compound exhibited 0-25% inhibition at 0.3 μM)
34 | O=C(CC12CC3CC(CC(C3)C1)C2)Nc1ncnc2c1CCN(Cc1ccc3c(c1)OCO3)C2 [Compound 321] | ++++ (compound exhibited 75% or greater inhibition at 0.3 μM)
35 | COc1ccc(C(=O)N2CCc3c(ncnc3NC(=O)CC34CC5CC(CC(C5)C3)C4)C2)cc1OC [Compound 312] | + (compound exhibited 0-25% inhibition at 0.3 μM)

Same assay, conditions: at 0.3 μM; THP-1 cells, BzATP-stimulated

Row | Compound | IL-1β % inhibition
36 | O=C(c1cccnc1Oc1ccccc1)N1CCc2c(ncnc2NC(=O)C23CC4CC(CC(C4)C2)C3)C1 [Compound 446] | ++ (compound exhibited 25-50% inhibition at 0.3 μM)
37 | O=C(Nc1ncnc2c1CCN(S(=O)(=O)Cc1ccc(Cl)c(Cl)c1)C2)C12CC3CC(CC(C3)C1)C2 [Compound 518] | ++++ (compound exhibited 75% or greater inhibition at 0.3 μM)
38 | N#Cc1cccc(C(=O)N2CCc3c(ncnc3NC(=O)C34CC5CC(CC(C5)C3)C4)C2)c1 [Compound 414] | ++ (compound exhibited 25-50% inhibition at 0.3 μM)
39 | CN1CCOc2cc(S(=O)(=O)N3CCc4c(ncnc4NC(=O)C45CC6CC(CC(C6)C4)C5)C3)ccc21 [Compound 494] | +++ (compound exhibited 50-75% inhibition at 0.3 μM)
40 | COc1ccc(C(=O)N2CCc3c(ncnc3NC(=O)C34CC5CC(CC(C5)C3)C4)C2)cc1 [Compound 407] | + (compound exhibited 0-25% inhibition at 0.3 μM)
41 | COc1cc(CN2CCc3c(ncnc3NC(=O)C34CC5CC(CC(C5)C3)C4)C2)ccc1OCc1ccccc1 [Compound 588] | ++ (compound exhibited 25-50% inhibition at 0.3 μM)
42 | O=C(Nc1ncnc2c1CCN(S(=O)(=O)c1ccc(OC(F)(F)F)cc1)C2)C12CC3CC(CC(C3)C1)C2 [Compound 493] | ++ (compound exhibited 25-50% inhibition at 0.3 μM)
43 | O=C(Nc1ncnc2c1CCN(Cc1ccc(C(F)(F)F)cc1F)C2)C12CC3CC(CC(C3)C1)C2 [Compound 612] | ++++ (compound exhibited 75% or greater inhibition at 0.3 μM)
44 | COc1cc(CN2CCc3c(ncnc3NC(=O)C34CC5CC(CC(C5)C3)C4)C2)ccc1F [Compound 629] | + (compound exhibited 0-25% inhibition at 0.3 μM)
45 | COc1cc(CN2CCc3c(ncnc3NC(=O)C34CC5CC(CC(C5)C3)C4)C2)cc(OC)c1 [Compound 633] | + (compound exhibited 0-25% inhibition at 0.3 μM)
46 | O=C(Nc1ncnc2c1CCN(S(=O)(=O)c1ccc3ccccc3c1)C2)C12CC3CC(CC(C3)C1)C2 [Compound 483] | +++ (compound exhibited 50-75% inhibition at 0.3 μM)
47 | CC(CCN1CCc2c(ncnc2NC(=O)C23CC4CC(CC(C4)C2)C3)C1)CC(C)(C)C (stereo not drawn) [Compound 552] | ++++ (compound exhibited 75% or greater inhibition at 0.3 μM)
48 | COc1ccc(CN2CCc3c(ncnc3NC(=O)C34CC5CC(CC(C5)C3)C4)C2)cc1OCc1ccccc1 [Compound 592] | ++++ (compound exhibited 75% or greater inhibition at 0.3 μM)
49 | O=C(Nc1ncnc2c1CCN(S(=O)(=O)Cc1cc(C(F)(F)F)cc(C(F)(F)F)c1)C2)C12CC3CC(CC(C3)C1)C2 [Compound 515] | +++ (compound exhibited 50-75% inhibition at 0.3 μM)
50 | O=C(c1cc(Cl)cc(Cl)c1)N1CCc2c(ncnc2NC(=O)C23CC4CC(CC(C4)C2)C3)C1 [Compound 479] | + (compound exhibited 0-25% inhibition at 0.3 μM)
51 | O=C(Nc1ncnc2c1CCN(S(=O)(=O)c1cc(Cl)ccc1Cl)C2)C12CC3CC(CC(C3)C1)C2 [Compound 538] | ++ (compound exhibited 25-50% inhibition at 0.3 μM)
